Test results reported in PubChem BioAssay AID1963450 (Molecular Pharmacology Branch, DTP, NCI, 2024).

Tested on: 556581-035-R-J1-PDC complex spheroid growth
Experiment: Anticancer human tumor 556581-035-R-J1-PDC patient-derived ovarian carcinoma cell line growth inhibition [Asc]
Conditions: for IC50: curve of first compound; for viability, T/C: stronger effect = lower value
In short: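 Spheroid model: tumor line + HUVEC + hMSC. Single agents and combinations; top conc. at/near clinical Cmax (10 microM if undetermined), half-log dilutions. DMSO stocks at 800-fold test concentration.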

[1] = second compound 0.03 µM, first compound 0.0316 µM
[2] = second compound 0.03 µM, first compound 0.1 µM
[3] = second compound 0.03 µM, first compound 0.316 µM
[4] = second compound 0.03 µM, first compound 1 µM
[5] = second compound 0.03 µM, first compound 3.16 µM
[6] = second compound 0.03 µM, first compound 10 µM
[7] = second compound 0.0949 µM, first compound 0.0316 µM
[8] = second compound 0.0949 µM, first compound 0.1 µM
[9] = second compound 0.0949 µM, first compound 0.316 µM
[10] = second compound 0.0949 µM, first compound 1 µM
[11] = second compound 0.0949 µM, first compound 3.16 µM
[12] = second compound 0.0949 µM, first compound 10 µM
[13] = second compound 0.3 µM, first compound 0.0316 µM
[14] = second compound 0.3 µM, first compound 0.1 µM
[15] = second compound 0.3 µM, first compound 0.316 µM
[16] = second compound 0.3 µM, first compound 1 µM
[17] = second compound 0.3 µM, first compound 3.16 µM
[18] = second compound 0.3 µM, first compound 10 µM
[19] = second compound 0.949 µM, first compound 0.0316 µM
[20] = second compound 0.949 µM, first compound 0.1 µM
[21] = second compound 0.949 µM, first compound 0.316 µM
[22] = second compound 0.949 µM, first compound 1 µM
[23] = second compound 0.949 µM, first compound 3.16 µM
[24] = second compound 0.949 µM, first compound 10 µM
[25] = second compound 3 µM, first compound 0.0316 µM
[26] = second compound 3 µM, first compound 0.1 µM
[27] = second compound 3 µM, first compound 0.316 µM
[28] = second compound 3 µM, first compound 1 µM
[29] = second compound 3 µM, first compound 3.16 µM
[30] = second compound 3 µM, first compound 10 µM
[31] = second compound 0.03 µM, first compound 0.00316 µM
[32] = second compound 0.03 µM, first compound 0.01 µM
[33] = second compound 0.0949 µM, first compound 0.00316 µM
[34] = second compound 0.0949 µM, first compound 0.01 µM
[35] = second compound 0.3 µM, first compound 0.00316 µM
[36] = second compound 0.3 µM, first compound 0.01 µM
[37] = second compound 0.949 µM, first compound 0.00316 µM
[38] = second compound 0.949 µM, first compound 0.01 µM
[39] = second compound 3 µM, first compound 0.00316 µM
[40] = second compound 3 µM, first compound 0.01 µM
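Also: spheroids exposed to agents for 7 days before viability read.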

Row | Structure (SMILES) | IC50 (second compound 0.03 µM) [µM] | IC50 (second compound 0.0949 µM) [µM] | IC50 (second compound 0.3 µM) [µM] | IC50 (second compound 0.949 µM) [µM] | IC50 (second compound 3 µM) [µM] | viability, T/C [1] [%] | viability, T/C [2] [%] | viability, T/C [3] [%] | viability, T/C [4] [%] | viability, T/C [7] [%] | viability, T/C [8] [%] | viability, T/C [9] [%] | viability, T/C [10] [%] | viability, T/C [13] [%] | viability, T/C [14] [%] | viability, T/C [15] [%] | viability, T/C [16] [%] | viability, T/C [19] [%] | viability, T/C [20] [%] | viability, T/C [21] [%] | other results
1 | C#Cc1c(F)ccc2cc(O)cc(-c3ncc4c(N5CC6CCC(C5)N6)nc(OCC56CCCN5CC(F)C6)nc4c3F)c12 (stereo not given) + CCN1C(C(=O)NC23CCC(C(=O)O)(CC2)CC3)C(c2cccc(Cl)c2F)C2(C(=O)Nc3cc(Cl)ccc32)C12CCCCC2 | > 10 | > 10 | > 10 | > 10 | > 10 | 98.9 | 86 | 102 | 89.6 | 105 | 83.2 | 93.9 | 79.5 | 80.2 | 66.7 | 75 | 86.1 | 86.6 | 80.3 | 85.7 | viability, T/C [5]: 96.7%; viability, T/C [6]: 89.6%; viability, T/C [11]: 91%; viability, T/C [12]: 61.9%; viability, T/C [17]: 83.3%; viability, T/C [18]: 61.8%; viability, T/C [22]: 74.9%; viability, T/C [23]: 76.3%; viability, T/C [24]: 78.5%; viability, T/C [25]: 95.8%; viability, T/C [26]: 102%; viability, T/C [27]: 76%; viability, T/C [28]: 78%; viability, T/C [29]: 70.1%; viability, T/C [30]: 78.6%
2 | C=C(F)C(=O)N1CCN(c2nc(OCC3CCCN3C)nc3c2CCN(c2cccc4cccc(Cl)c24)C3)CC1CC#N (stereo not given) + CCN1C(C(=O)NC23CCC(C(=O)O)(CC2)CC3)C(c2cccc(Cl)c2F)C2(C(=O)Nc3cc(Cl)ccc32)C12CCCCC2 | 3.8 | 3.86 | 3.88 | 4.39 | 2.67 | 92.1 | 97.3 | 112 | 94.5 | 114 | 102 | 90.8 | 87.8 | 103 | 92.5 | 103 | 81.6 | 91.7 | 99.2 | 98.3 | viability, T/C [5]: 59%; viability, T/C [6]: 3.04%; viability, T/C [11]: 62.5%; viability, T/C [12]: 3.7%; viability, T/C [17]: 61.4%; viability, T/C [18]: 3.01%; viability, T/C [22]: 84.9%; viability, T/C [23]: 65.6%; viability, T/C [24]: 12.3%; viability, T/C [25]: 89.8%; viability, T/C [26]: 105%; viability, T/C [27]: 92.5%; viability, T/C [28]: 79.2%; viability, T/C [29]: 45.2%; viability, T/C [30]: 2.9%
3 | C=CC(=O)N1CCN(c2nc(=O)n(-c3c(C)ccnc3C(C)C)c3nc(-c4c(O)cccc4F)c(F)cc23)C(C)C1 (stereo not given) + CCN1C(C(=O)NC23CCC(C(=O)O)(CC2)CC3)C(c2cccc(Cl)c2F)C2(C(=O)Nc3cc(Cl)ccc32)C12CCCCC2 | > 10 | > 10 | > 10 | > 10 | > 10 | 96.1 | 98.7 | 95.1 | 102 | 102 | 99.1 | 104 | 88 | 102 | 103 | 101 | 86.6 | 113 | 95.6 | 119 | viability, T/C [5]: 94.3%; viability, T/C [6]: 94.4%; viability, T/C [11]: 117%; viability, T/C [12]: 99.4%; viability, T/C [17]: 116%; viability, T/C [18]: 103%; viability, T/C [22]: 115%; viability, T/C [23]: 109%; viability, T/C [24]: 103%; viability, T/C [25]: 93.2%; viability, T/C [26]: 87.5%; viability, T/C [27]: 96%; viability, T/C [28]: 96.5%; viability, T/C [29]: 103%; viability, T/C [30]: 84.8%
4 | CNC(C)C(=O)NC1CN(S(=O)(=O)c2cccc(S(=O)(=O)N3CCC4CCC(C(=O)NC(c5ccccc5)c5ccccc5)N4C(=O)C(NC(=O)C(C)NC)C3)c2)CCC2CCC(C(=O)NC(c3ccccc3)c3ccccc3)N2C1=O (stereo not given) + CCN1C(C(=O)NC23CCC(C(=O)O)(CC2)CC3)C(c2cccc(Cl)c2F)C2(C(=O)Nc3cc(Cl)ccc32)C12CCCCC2 | > 1 | > 1 | > 1 | > 1 | > 1 | 97.9 | 76.4 | 61.8 | 54.3 | 87 | 76.8 | 65.6 | 60.5 | 106 | 77.3 | 73 | 57.1 | 93.9 | 66.8 | 65.1 | viability, T/C [31]: 94.8%; viability, T/C [32]: 82.8%; viability, T/C [33]: 88.3%; viability, T/C [34]: 98.8%; viability, T/C [35]: 108%; viability, T/C [36]: 97.5%; viability, T/C [37]: 85.5%; viability, T/C [38]: 81.2%; viability, T/C [22]: 65.5%; viability, T/C [39]: 105%; viability, T/C [40]: 94.6%; viability, T/C [25]: 78.7%; viability, T/C [26]: 70.8%; viability, T/C [27]: 63.3%; viability, T/C [28]: 60.5%
5 | COc1c(OCCCN2CCOCC2)ccc2c3n(c(=NC(=O)c4cnc(N)nc4)nc12)CCN3 + CCN1C(C(=O)NC23CCC(C(=O)O)(CC2)CC3)C(c2cccc(Cl)c2F)C2(C(=O)Nc3cc(Cl)ccc32)C12CCCCC2 | 0.0589 | 0.0427 | 0.0394 | 0.0511 | 0.0333 | 59.2 | 43.3 | 20 | 13.4 | 51.7 | 39.3 | 25.7 | 13.5 | 50.2 | 39 | 22.5 | 15.4 | 58.2 | 40.2 | 21.6 | viability, T/C [31]: 71.9%; viability, T/C [32]: 65.5%; viability, T/C [33]: 78.3%; viability, T/C [34]: 70.1%; viability, T/C [35]: 76.7%; viability, T/C [36]: 70%; viability, T/C [37]: 78.3%; viability, T/C [38]: 75.2%; viability, T/C [22]: 45.8%; viability, T/C [39]: 62.2%; viability, T/C [40]: 57.9%; viability, T/C [25]: 46.7%; viability, T/C [26]: 45.5%; viability, T/C [27]: 27.5%; viability, T/C [28]: 14.6%
